This is an account of results in paper PMC10238102, “Anti-SARS-CoV-2 Activity of Adamantanes In Vitro and in Animal Models of Infection” (COVID, 2022).

SMILES strings stand for the structures. Entries after “also recorded” stand apart in the source; their conditions may differ. Like-named read-outs stand apart in the source and are kept apart here. Where only a bound is given, the exact number is not on record here.

As a reminder, the IC50 is the point on the concentration scale where inhibition reaches its midpoint. Usually Cmax stands for the peak of the concentration-time curve.

Data set [1] concerns icSARS-CoV-2-mNG. Nature of the data set: microbe, parasite or virus in culture. The format is cell-based, SARS-CoV-2.
The test system of data set [2] is SARS-CoV-2 WA/01. Nature of the data set: SARS-CoV-2 WA/01 immunostaining assay in ACE2-A549 cells. The format is cell-based. The settings on record: MOI 0.1, anti-spike staining, 3 DPI (Figure 2A).
In data set [3] the test system is ACE2-A549 cells. Nature of the data set: CellTiter-Glo cell viability assay in ACE2-A549 cells. Background: Cellular ATP, detected with luciferase, serves as a proxy for viable cell number.
The conditions of data set [4]: cited from earlier work.
Data set [5] concerns icSARS-CoV-2-mNG. Nature of the data set: microbe, parasite or virus in culture. The settings on record: Severe acute respiratory syndrome coronavirus 2, read-out: IC50 (virus titer by plaque assay). The format is cell-based, SARS-CoV-2.
The next data set in a line: in vitro. To be noted: human.
For a further data set, the system named is SARS-CoV-2 protein E. Set-up: method as in PMID 34893762. The settings on record: expressed in X. laevis oocytes; cited from earlier work.
The nature of data set [6]: Cell viability (CC50) in Vero E6-TMPRSS2-T2A-ACE2 cells. The format is cell-based. The settings on record: African green monkey, Vero E6 T/A cells, Figure 3.
For data set [7] the following is noted: cited from earlier work. This is another data set of the same source.
The subject of data set [8] is SARS-CoV-2. The data set is described as follows: Summary of in vitro assays in human lung epithelial cells expressing ACE2. The format is cell-based. The settings on record: Severe acute respiratory syndrome coronavirus 2, Epithelial cell, read-out: IC50 values (summary range).
Data set [9] concerns SARS-CoV-2 WA/01. The data set is described as follows: Golden Syrian hamster infection model, lung virus titer by plaque assay. The format is in vivo, golden Syrian hamsters. The settings on record: 60 mg/kg i.p. every 12 h from 24 h before infection, 4 DPI. On the procedure: The golden Syrian hamster experiment was performed by Dr. Anthony Griffith’s team at the Boston University School of Medicine. Adult hamsters (3 males and 3 females per group) were administered with antiviral compounds i.p. starting 24 h prior to infection until completion of the study. Hamsters were infected with SARS-CoV-2 WA/01 i.n. (4 × 10^4 PFU in 100 μL). At 4 DPI, hamsters underwent euthanasia and their lungs were collected to perform plaque assays to measure virus titer in the tissues. Lung tissue from each hamster was stored at −80 °C prior to titer. Tissues were removed from −80 °C and thawed at 4 °C before being weighed and cut to a weight ≤100 mg. Each tissue sample was then homogenized using a TissueLyser II (Qiagen, Germantown, MD, USA) in a final volume of 1 mL using DMEM/2% FBS/antibiotic-antimycotic (Gibco™). Each tissue homogenate was then diluted and 200 μL of each dilution or control was added to confluent monolayers of Vero E6 cells in duplicate and incubated for 1 h at 37 °C and 5% CO2. The plates were gently rocked every 5–10 min to prevent monolayer drying. […]

Data set [10] has as its system SARS-CoV-2 WA/01. The data set is described as follows: SARS-CoV-2 WA/01 antiviral assay in Vero E6 cells. The settings on record: Severe acute respiratory syndrome coronavirus 2, Vero C1008, strain WA/01. The format is cell-based.
The test system of data set [11] is Influenza A/Hong Kong/8/68 (H3N2). Nature of the data set: microbe, parasite or virus in culture. Type of data set: cell-based.
Another data set has as its system SARS-CoV-2 ORF10. The arrangement: method as in PMID 34893762. To be noted: expressed in X. laevis oocytes; cited from earlier work.
The test system of data set [12] is SARS-CoV-2. To be noted: obtained by Zhou et al.; cited from earlier work.
A short description of data set [13]: CellTiter-Glo cell viability assay in ACE2-A549 cells. To be noted: human.
Data set [14] can be described thus: Body weight and deaths of treated, infected BALB/c mice. The settings on record: 60 mg/kg i.n. every 12 h, n = 6 mice per group.
Data set [15] relates to ACE2-A549 cells. To be noted: human.
Setting [16] is: Severe acute respiratory syndrome coronavirus 2.
Where [17] appears, read: Severe acute respiratory syndrome coronavirus 2, ACE2-A549 cells.

`O=c1nc(NO)ccn1[C@@H]1O[C@H](CO)[C@@H](O)[C@H]1O` [EIDD-1931]: the IC50 is 1.5 µM in the data set on icSARS-CoV-2-mNG [1] (read-out: IC50) and 0.36 µM in the data set on SARS-CoV-2 WA/01 [2] (ACE2-A549 cells, read-out: IC50). Moreover, the CC50 in the data set on ACE2-A549 cells [3] (Figure 1A) is 130 µM; in the data set on ACE2-A549 cells [3] (Figure 2A) it was 100 µM.

Consider `NC12CC3CC(CC(C3)C1)C2` [amantadine], for which the Cmax in data set [4] (read-out: Cmax plasma level, mice, single-dose i.p. injection of 60 mg/kg) was 47 µM; in data set [7] (multiple dose, 258 mg extended-release tablet once daily), 4.16 µM. Further, the IC50 with icSARS-CoV-2-mNG [1] was 120 µM; in the data set on icSARS-CoV-2-mNG [1] (setting [16]), 120 µM; in the data set on SARS-CoV-2 WA/01 [2] (setting [17]), 136 µM; with icSARS-CoV-2-mNG [5] it was 34.6 µM; in the data set with SARS-CoV-2 [8], 120 to 130 µM; with SARS-CoV-2 WA/01 [10], 413 µM. Besides, the results for the IC50 (in data set [11]; in the data set with SARS-CoV-2 [12]) were 0.46 µM and 116 µM, respectively. The same molecule registered a CC50 in the data set “in vitro” of no less than 1000 µM. In addition, the “channel activity of protein E” value in the data set on SARS-CoV-2 protein E was “decreased channel activities”. For the same molecule, in data set [6], the CC50 at 48 h was no less than 1000 µM. For the same molecule, the “ratio of nasal mucus to plasma concentration, compared with rimantadine” value in data set [7] (after single 200-mg doses) was “about two-fold higher”. For the same molecule, the “concentration in autopsy lung tissue relative to serum concentration” value in [7] (autopsy lung tissue from an infant) is listed as 14 times. Also, the “lung virus titer vs no-drug control” value with SARS-CoV-2 WA/01 [9] is recorded as “did not significantly inhibit”. For the same molecule, in the data set with SARS-CoV-2 ORF10, the “channel activity of ORF10” value is recorded as “decreased channel activities”.

Turning to `NC(N)=NC(=O)c1nc(Cl)c(N2CCCCCC2)nc1N` [hexamethylene-amiloride], in the data set on SARS-CoV-2 protein E, the “channel activity of protein E” value is on record as “decreased channel activities”. Also, in the data set with SARS-CoV-2 ORF10, the “channel activity of ORF10” value is “decreased channel activities”.

In the case of `CCC(CC)COC(=O)[C@H](C)N[P@](=O)(OC[C@H]1O[C@@](C#N)(c2ccc3c(N)ncnn23)[C@H](O)[C@@H]1O)Oc1ccccc1` [remdesivir], the IC50 amounted to 0.08 µM in the data set on icSARS-CoV-2-mNG [1] (setting [16]) and 0.04 µM in the data set with SARS-CoV-2 WA/01 [2] (setting [17]). Besides, in data set [13], the CC50 was no less than 3 µM. This molecule also yielded a CC50 at 48 h in data set [6] of no less than 10 µM.

For the molecule `CC(N)C12CC3CC(CC(C3)C1)C2` (centres unmarked) [rimantadine], the Cmax was 9.3 µM in data set [4] (mouse, in vivo, po, 40 mg/kg) and 0.54 to 2.17 µM in [7] (in vivo, 100 mg). The IC50 in the data set with icSARS-CoV-2-mNG [1] is 29.8 µM; in the data set on icSARS-CoV-2-mNG [1] (setting [16]), 30 µM; with SARS-CoV-2 WA/01 [2] (setting [17]) it was 34 µM; with icSARS-CoV-2-mNG [5], 12.6 µM; in the data set with SARS-CoV-2 [8] it was 30 to 40 µM; in the data set on SARS-CoV-2 WA/01 [10], 121 µM. Moreover, the IC50 in [11] was 0.05 µM; in the data set on SARS-CoV-2 [12], 36 µM. Also, the “mice found dead within 1 DPI” value in [14] is reported as “Two”. This molecule also showed a CC50 in “in vitro” of no less than 300 µM. Also, the “channel activity of protein E” value with SARS-CoV-2 protein E was “not reported to be inhibited”. This molecule displayed a CC50 at 48 h in data set [6] of no less than 300 µM. In addition, the “lung virus titer vs no-drug control” value in the data set with SARS-CoV-2 WA/01 [9] was “modestly but significantly inhibited; also recorded: mild but significant antiviral effect”.

In the case of `CN(C)CCOCC(=O)NC12CC3CC(CC(C3)C1)C2` [tromantadine], the IC50 in the data set with icSARS-CoV-2-mNG [1] is 97.6 µM; with icSARS-CoV-2-mNG [1] (setting [16]), 98 µM; in the data set with SARS-CoV-2 WA/01 [2] (setting [17]) it was 56 µM; in the data set on icSARS-CoV-2-mNG [5], 88.9 µM; in the data set with SARS-CoV-2 [8] it was 60 to 100 µM; in data set [11], 94.2 µM. For the same molecule, the values for the CC50 in the data set “in vitro” and with ACE2-A549 cells [15] were 312 µM and 305 µM, respectively.
